Assay results as given in patent US8389555B2, “Medicaments” (Motac Neuroscience Limited, priority 2007, dated 2013).

Tests used:
[1] = target: T1, human dopamine D3 receptors (Homo sapiens, UniProt P35462); assay: Dopamine D3 receptor binding assay ([3H]spiperone, CHO cell membranes); settings: for Ki: human D3 receptors in CHO cells, 0.2 nM [3H]spiperone, mean ± SEM, read-out: Affinity Ki (D3); for Selectivity Ki(D2)/Ki(D3): ratio of Ki(D2) to Ki(D3)
T1 construct: expressed in transfected cells
Method: (§1) Compounds synthesized in Examples A, B, C and D were assayed to test their affinity for dopamine D3 and D2 receptors.
(§2) METHODS: Dopamine D2S and D3 Receptor Binding Assays
Human D3 receptors stably expressed in CHO cells were used as described by Sokoloff et al. (Sokoloff, P. et al., Eur. J. Pharmacol. 1992, 225, 331-337). The cell line was cultured in Dulbecco's modified Eagle's medium supplemented with 2 mM glutamine, and 10% dialyzed fetal bovine serum, and were grown in an atmosphere of 5% CO2 at 37° C. (Gibco™).
(§3) Human D2S- and D3 receptors expressing cell lines were grown to confluence. The medium was removed, and the cells were washed with 10 ml PBS buffer (140 mM NaCl, 3 mM KCl, 1.5 mM KH2PO4, 8 mM Na2HPO4, pH 7.4) at 4° C. After removing the wash buffer, the cells were scraped from the flasks into 15 ml of ice-cold media, and centrifuged at 3,000 rpm for 10 minutes at 4° C. After centrifugation the medium was removed and the […] resuspended in ice-cold Tris-HCl buffer containing 5 mM MgCl2, pH 7.4 and disrupted with a Polytron and centrifuged at 20,000 rpm, for 30 minutes at 4° C. The pellet was resuspended by sonication in ice-cold Tris-HCl buffer (containing 5 mM MgCl2, pH 7.4), membrane aliquots were stored at −70° C. Determination of membrane protein was carried out by the method of Bradford (Bradford, M. M. Anal Biochem 1976, 72, 248-54).
(§4) Cell membranes containing human D2S and D3 receptors from CHO cells were thawed, rehomogenized with sonication at 4° C. in Tris-HCl, pH 7.4 containing 120 mM NaCl, 5 mM KCl, 2 mM CaCl2 and 1 mM MgCl2 (incubation buffer), and incubated with 0.2 nM [^3H]spiperone (106 Ci·mmol^−1, Amersham Biosciences, Freiburg, Germany), and drug diluted in incubation buffer. Non-specific binding was determined in the presence of 10 μM BP 897 ((Wermuth, C. G. et al. in Chem. Abstr. (Eur. Pat. 0779284, 1997)). Incubations were run at 25° C. for 120 min, and terminated by rapid filtration through PerkinElmer GF/B glass fibre filters (PerkinElmer Life Sciences, Rodgau, Germany) coated in 0.3% polyethylenimine (Sigma-Aldrich, Taufkirchen, Germany) using an Inotech cell harvester (Inotech AG, Dottikon, Switzerland). Unbound radioligand was removed with four washes of 1 ml of ice-cold 50 mM Tris-HCl buffer, pH 7.4, containing 120 mM NaCl. The filters were soaked in 9 ml Beta plate scint scintillator and counted using a PerkinElmer MicroBeta®Trilux scintillation counter (PerkinElmer Life Sciences). Competition binding data were analyzed by the software GraphPad Prism™ (2000, version 3.02, San Diego, Calif., USA), using non-linear least squares fit. For detailed screening the compounds have been tested at seven concentrations in triplicate carrying out three to five separate binding experiments for human dopamine D2S and for human dopamine D3 receptors and expressed as mean±standard error of the mean (SEM). Ki values were calculated from the IC50 values according to Cheng-Prusoff equation (Cheng, Y. C., Prusoff, W. H. Biochem. Pharmacol. 1973, 22, 3099-3108.).

[2] = target: T2, recombinant human D2(short) dopamine receptor (Homo sapiens, UniProt P14416); assay: Dopamine D2S receptor binding assay ([3H]spiperone, CHO cell membranes); settings: human D2S receptors in CHO cells, 0.2 nM [3H]spiperone, mean ± SEM; read-out: Affinity Ki (D2)
T2 construct: expressed in transfected cells; host or cells: CHO-D2S cells (per Hayes et al. 1992)
Method: as §1, §2
CHO-D2S cells, expressing the recombinant human D2(short) dopamine receptor gene, (Hayes, G. et al., J. Mol. Endocrinol. 1992, 6, 920-926) were grown in Dulbecco's modified Eagle's medium/nutrient mixture F12 1:1 mixture supplemented with 2 mM glutamine, 10% fetal bovine serum, and 10 μl·ml^−1 penicillin/streptomycin in an atmosphere of 5% CO2 at 37° C. (Gibco™, Karlsruhe, Germany).
as §3, §4

T1 sequence (P35462 whole entry): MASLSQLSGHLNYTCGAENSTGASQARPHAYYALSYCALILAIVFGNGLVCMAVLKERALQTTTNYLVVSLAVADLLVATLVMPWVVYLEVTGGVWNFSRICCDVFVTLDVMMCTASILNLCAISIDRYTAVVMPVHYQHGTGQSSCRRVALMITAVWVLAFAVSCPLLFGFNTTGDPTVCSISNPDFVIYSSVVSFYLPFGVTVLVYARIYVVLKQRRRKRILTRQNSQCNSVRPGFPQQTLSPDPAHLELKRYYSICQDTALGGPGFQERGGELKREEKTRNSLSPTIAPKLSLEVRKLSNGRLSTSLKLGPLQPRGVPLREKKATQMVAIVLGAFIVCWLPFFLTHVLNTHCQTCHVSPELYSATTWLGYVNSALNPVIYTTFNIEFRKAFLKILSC
T2 sequence (P14416 1-414 isoform P14416-2): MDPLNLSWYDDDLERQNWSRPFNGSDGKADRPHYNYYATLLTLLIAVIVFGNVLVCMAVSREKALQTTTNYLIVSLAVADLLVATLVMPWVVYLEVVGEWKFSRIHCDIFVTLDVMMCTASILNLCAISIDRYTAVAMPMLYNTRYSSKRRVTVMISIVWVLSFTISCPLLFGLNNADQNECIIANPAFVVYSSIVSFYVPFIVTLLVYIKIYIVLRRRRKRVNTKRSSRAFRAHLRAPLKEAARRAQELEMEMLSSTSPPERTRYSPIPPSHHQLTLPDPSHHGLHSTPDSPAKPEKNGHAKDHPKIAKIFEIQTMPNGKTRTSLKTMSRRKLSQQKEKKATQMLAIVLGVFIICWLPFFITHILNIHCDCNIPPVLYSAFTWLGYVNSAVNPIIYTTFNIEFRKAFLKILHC

In the case of CCN(CCN1CCN(c2ccccc2OC)CC1)C1CCc2ncsc2C1 (stereo not drawn) [Compound 28], the Ki [1] is reported as 0.0135 ± 0.0011 µM, the “Selectivity Ki(D2)/Ki(D3)” value [1] is reported as 11 and the Ki [2] is reported as 0.148 ± 0.023 µM.

In the case of CCN(CCCN1CCN(c2ccccc2OC)CC1)C1CCc2ncsc2C1 (stereo not drawn) [Compound 29, Ethyl-{3-[4-(2-methoxy-phenyl)-piperazin-1-yl]-propyl}-(4,5,6,7-tetrahydro-benzothiazol-6-yl)-amine], the Ki [1] is reported as 0.089 ± 0.0017 µM, the “Selectivity Ki(D2)/Ki(D3)” value [1] is reported as 2 and the Ki [2] is reported as 0.14 ± 0.122 µM.

In the case of CCN(CCCCN1CCN(c2ccccc2OC)CC1)C1CCc2ncsc2C1 (stereo not drawn) [Compound 30, Ethyl-{4-[4-(2-methoxy-phenyl)-piperazin-1-yl]-butyl}-(4,5,6,7-tetrahydro-benzothiazol-6-yl)-amine], the Ki [1] is reported as 0.0553 ± 0.0161 µM, the “Selectivity Ki(D2)/Ki(D3)” value [1] is reported as 8.7 and the Ki [2] is reported as 0.48 ± 0.051 µM.

With CCN(CCN1CCc2ccccc2C1)C1CCc2ncsc2C1 (stereo not drawn) [Compound 31, [2-(3,4-Dihydro-1H-isoquinolin-2-yl)-ethyl]-ethyl-(4,5,6,7-tetrahydro-benzothiazol-6-yl)-amine] the Ki [1] was 0.0265 ± 0.0044 µM, the “Selectivity Ki(D2)/Ki(D3)” value [1] was 35 and the Ki [2] was 0.929 ± 0.103 µM.

For CCN(CCNC(=O)c1ccc2ccccc2c1)C1CCc2ncsc2C1 (stereo not drawn) [Compound 32, Naphthalene-2-carboxylic acid {2-[ethyl-(4,5,6,7-tetrahydro-benzothiazol-6-yl)-amino]-ethyl}-amide], the Ki [1] was 0.0678 ± 0.0214 µM, the “Selectivity Ki(D2)/Ki(D3)” value [1] was 38 and the Ki [2] was 2.55 ± 0.302 µM.

For CCCN(CCCN1CCN(c2cccc(Cl)c2Cl)CC1)C1CCc2ncsc2C1 (stereo not drawn) [Compound 36, {3-[4-(2,3-Dichloro-phenyl)-piperazin-1-yl]-propyl}-propyl-(4,5,6,7-tetrahydro-benzothiazol-6-yl)-amine], the Ki [1] was 0.035 ± 0.022 µM, the “Selectivity Ki(D2)/Ki(D3)” value [1] was 4 and the Ki [2] was 0.129 ± 0.036 µM.

With CCCN(CCCCN1CCN(c2cccc(Cl)c2Cl)CC1)C1CCc2ncsc2C1 (stereo not drawn) [Compound 37, {4-[4-(2,3-Dichloro-phenyl)-piperazin-1-yl]-butyl}-propyl-(4,5,6,7-tetrahydro-benzothiazol-6-yl)-amine] the Ki [1] was 0.0076 ± 0.0016 µM, the “Selectivity Ki(D2)/Ki(D3)” value [1] was 7 and the Ki [2] was 0.0794 ± 0.0497 µM.

In the case of CCCN(CCN1CCN(C(=O)c2ccccc2)CC1)C1CCc2ncsc2C1 (stereo not drawn) [Compound 38, [2-(4-Benzoyl-piperazin-1-yl)-ethyl]-propyl-(4,5,6,7-tetrahydro-benzothiazol-6-yl)-amine], the Ki [1] is reported as 0.0274 ± 0.0148 µM, the “Selectivity Ki(D2)/Ki(D3)” value [1] is reported as 192 and the Ki [2] is reported as 5.27 ± 1.85 µM.

In the case of CCCN(CCCCNC(=O)NC1Cc2ccccc2C1)C1CCc2ncsc2C1 (stereo not drawn) [Compound 60, 1-Indan-2-yl-3-{4-[propyl-(4,5,6,7-tetrahydrobenzothiazol-6-yl)amino]butyl}urea], the Ki [1] is reported as 0.00336 ± 0.00121 µM, the “Selectivity Ki(D2)/Ki(D3)” value [1] is reported as 649 and the Ki [2] is reported as 2.18 ± 1.64 µM.

For CCCN(CCCCNC(=O)N1CCN(c2ccccc2)CC1)C1CCc2ncsc2C1 (stereo not drawn) [Compound 61, 4-Phenylpiperazine-1-carboxylic acid {4-[propyl-(4,5,6,7-tetrahydrobenzothiazol-6-yl)amino]butyl}amide], the Ki [1] was 0.00209 ± 0.00057 µM, the “Selectivity Ki(D2)/Ki(D3)” value [1] was 1640 and the Ki [2] was 3.43 ± 1.29 µM.

With CCCN(CCCCNC(=O)N1CC=C(c2ccccc2)CC1)C1CCc2ncsc2C1 (stereo not drawn) [Compound 62, 4-Phenyl-3,6-dihydro-2H-pyridine-1-carboxylic acid {4-[propyl-(4,5,6,7-tetrahydrobenzothiazol-6-yl)amino]butyl}amide] the Ki [1] was 0.00731 ± 0.00286 µM, the “Selectivity Ki(D2)/Ki(D3)” value [1] was 667 and the Ki [2] was 4.88 ± 1.89 µM.

In the case of O=C(NCCCCNC1CCc2ncsc2C1)c1nc2ccccc2s1 (stereo not drawn) [Compound 63, N-(4-(4,5,6,7-Tetrahydrobenzo[d]thiazol-6-ylamino)butyl)benzo[d]thiazole-2-carboxamide], the Ki [1] is reported as 1.9 ± 0.51 µM, the “Selectivity Ki(D2)/Ki(D3)” value [1] is reported as 13 and the Ki [2] is reported as 24.5 ± 7.58 µM.

In the case of CCCN(CCCCNC(=O)N1CCC(c2ccccc2)CC1)C1CCc2ncsc2C1 (stereo not drawn) [Compound 64, 4-phenyl-N-(4-(propyl-(4,5,6,7-tetrahydrobenzo [d]thiazol-6-yl)amino)butyl)piperidine-1-carboxamide], the Ki [1] is reported as 0.00629 ± 0.0018 µM, the “Selectivity Ki(D2)/Ki(D3)” value [1] is reported as 435 and the Ki [2] is reported as 2.73 ± 0.611 µM.
